Source: US20240294551A1 (AMGEN INC., priority 2022, published 2024)
pIC50: −log10 of the molar value. Read-outs that look alike come from different tables or passages of the source.

What was measured:
[1] = test system: AsPC-1 cells; test: AsPC-1 CTG Assay (CellTiter-Glo cell viability); assay type: cell-based, human; settings: first value of the cell, read-out: G12D/C/V Cell Proliferation CTG (72 h) AsPC-1
Procedure, shortened: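 Human pancreatic AsPC-1 or colon SW620 cells in RPMI 1640 with 10% FBS, seeded overnight, then exposed to serially diluted compound for 72 h at 37 °C. CellTiter-Glo luminescence normalized to DMSO control; IC50 from a 4-parameter logistic model.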

[2] = test system: Phosphorylation of ERK1/2 in AsPC-1 cells; test: Phospho-ERK1/2 MSD Assay; assay type: cell-based, human
Procedure, shortened: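 Read-out: MSD electrochemiluminescent detection of phosphorylated ERK1/2 in whole-cell lysates, fitted to a 4-parameter logistic curve for IC50. Prior to lysis, AsPC-1 cells (25,000 per well) received a 2 h compound dose-response at 37 °C.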

[3] = target: GDP-bound KRAS protein (aa 1-169), containing both G12D and C118A amino acid substitutions (Homo sapiens (Human), UniProt P01116, C118A/G12D); test: KRAS G12D Coupled Nucleotide Exchange Assay; assay type: biochemical
[4] = target: His-tagged KRAS G12D protein (Homo sapiens (Human), UniProt P01116, G12D); test: KRAS G12D TR-FRET Assay; assay type: binding
Procedure, shortened: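 His-tagged KRAS G12D (diluted to 20 nM in pH 7.4 HEPES buffer with 10 mM MgCl2 and 10 μM GDP) was preincubated with titrated compound for 30 min at room temperature. Biotinylated KRPep-2d peptide (diluted to 20 nM) was then added for 1 h, and displacement was monitored by TR-FRET.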

[5] = Homo sapiens, ASPC1, 72 h, AsPC-1, 72 h
[6] = Homo sapiens, ASPC1, 2 h, read-out: 2 h p-ERK (AsPC-1 cells), IC50
[7] = read-out: KRAS G12D Coupled Exchange IC50
[8] = read-out: KRAS G12D Binding IC50
[9] = 2 h, read-out: 2 h p-ERK (AsPC-1 cells), IC50

| Molecule | pIC50 [1, 5] | pIC50 [2, 6] | pIC50 [3, 7] | pIC50 [4, 8] | pIC50 ([1]; Homo sapiens, ASPC1, 72 h, AsPC-1 cells (G12D), 72 h) | pIC50 ([2]; Homo sapiens, ASPC1, 2 h, read-out: 2 h p-ERK (AsPC-1 cells)) | pIC50 ([3]; 2 hours compound pre-incubation, read-out: KRAS G12D Coupled Exchange) | pIC50 ([4]; TR-FRET, read-out: KRAS G12D Binding) | pIC50 ([1]; AsPC-1, 72 h) | pIC50 [2, 9] | IC50 [3, 7] [nM] |
| --- | --- | --- | --- | --- | --- | --- | --- | --- | --- | --- | --- |
| C[C@@]12COCCN(C1)c1nc(OC[C@@]34CCCN3C[C@H](F)C4)nc3cc(ncc13)-c1c(c(Cl)cc3[nH]ncc13)CCCOC(=O)O2 [Example 346, (26S)-18-chloro-4-(((2R,7aS)-2-fluorotetrahydro-1H-pyrrolo[1,2-a]pyrrol-7a(5H)-yl)methoxy)-26-methyl-23,25,28-trioxa-1,3,5,9,14,15-hexaazahexacyclo[24.4.1.1~6,10~.0~2,7~.0~11,19~.0~12,16~]dotriaconta-2,4,6(32),7,9,11,13,16,18-nonaen-24-one] | 6.53 | 7.87 | 8.70 | 8.30 |  |  |  |  |  |  |  |
| C[C@@]12COCCN(C1)c1nc(OC[C@@]34CCCN3C[C@H](F)C4)nc3c(F)c(ncc13)-c1cc(O)cc3ccc(F)c(c13)CCOC(=O)O2 [Example 345, (16S)-23,32-difluoro-8-(((2R,7aS)-2-fluorotetrahydro-1H-pyrrolo[1,2-a]pyrrol-7a(5H)-yl)methoxy)-28-hydroxy-16-methyl-14,17,19-trioxa-3,7,9,11-tetraazahexacyclo[20.7.1.1~2,6~.1~11,16~.0~5,10~.0~26,30~]dotriaconta-1(30),2(32),3,5,7,9,22,24,26,28-decaen-18-one] | 7.80 | 9.15 | 9.00 | 8.52 |  |  |  |  |  |  |  |
| O=C1OCCc2c(F)cc3[nH]ncc3c2-c2ncc3c(nc(OC[C@@]45CCCN4C[C@H](F)C5)nc3c2F)N2CCC[C@]3(C2)C[C@H](C3)O1 [Example 356, (1R,3S)-10,32-difluoro-24-(((2R,7aS)-2-fluorotetrahydro-1H-pyrrolo[1,2-a]pyrrol-7a(5H)-yl)methoxy)-4,6-dioxa-13,14,19,23,25,27-hexaazaheptacyclo[25.3.1.1~1,3~.1~18,22~.0~9,17~.0~12,16~.0~21,26~]tritriaconta-9,11,14,16,18(32),19,21,23,25-nonaen-5-one] | 7.03 | 8.09 | 8.52 | 8.40 |  |  |  |  |  |  |  |
| C[C@@H]1CCOC[C@H]2CN(CCO2)c2nc(OC[C@@]34CCCN3C[C@H](F)C4)nc3c(F)c(ncc23)-c2c(c(Cl)cc3[nH]ncc23)C1 [Example 253, (12S,17R)-9-chloro-30-fluoro-24-(((2R,7aS)-2-fluorotetrahydro-1H-pyrrolo[1,2-a]pyrrol-7a(5H)-yl)methoxy)-12-methyl-15,18-dioxa-5,6,21,23,25,29-hexaazahexacyclo[24.3.1.1~17,21~.0~2,10~.0~3,7~.0~22,27~]hentriaconta-1(30),2,4,7,9,22,24,26,28-nonaene] | 5.92 | 7.17 | 8.22 | 8.05 |  |  |  |  |  |  |  |
| O=C1N[C@@H]2CCCCN(C2)c2nc(OC[C@@]34CCCN3C[C@H](F)C4)nc3c(F)c(ncc23)-c2c(c(Cl)cc3[nH]ncc23)CCCC1F (mixture of isomers) [Example 161] | 6.65 | 7.70 | 8.40 | 8.22 |  |  |  |  |  |  |  |
| O=C1OCCc2c(Cl)cc3[nH]ncc3c2-c2cc3nc(OC[C@@]45CCCN4C[C@H](F)C5)nc(c3cn2)N2CCC[C@]3(C2)C[C@H](C3)O1 [Example 343, (1R,3S)-10-chloro-24-(((2R,7aS)-2-fluorotetrahydro-1H-pyrrolo[1,2-a]pyrrol-7a(5H)-yl)methoxy)-4,6-dioxa-13,14,19,23,25,27-hexaazaheptacyclo[25.3.1.1~1,3~.1~18,22~.0~9,17~.0~12,16~.0~21,26~]tritriaconta-9,11,14,16,18(32),19,21,23,25-nonaen-5-one] | 6.02 | 7.34 | 7.89 | 7.66 |  |  |  |  |  |  |  |
| O[C@@H]1C[C@@H]2COCCCCc3c(Cl)cc4[nH]ncc4c3-c3ncc4c(nc(OC[C@@]56CCCN5C[C@H](F)C6)nc4c3F)N(C1)C2 [Example 406, (17S,19R)-9-Chloro-30-fluoro-24-(((2R,7aS)-2-fluorotetrahydro-1H-pyrrolo[1,2-a]pyrrol-7a(5H)-yl)methoxy)-15-oxa-5,6,21,23,25,29-hexaazahexacyclo[24.3.1.1˜17,21˜.0˜2,10˜.0˜3,7˜.0˜22,27˜]hentriaconta-1(30),2,4,7,9,22,24,26,28-nonaen-19-ol] |  |  |  |  | 5.71 | 6.58 | 8.40 | 7.68 |  |  |  |
| C[C@@]12COCCN(C1)c1nc(OC[C@@H]3CC[C@H]4COCCN43)nc3c(F)c(ncc13)-c1c(c(Cl)cc3[nH]ncc13)CCCOC(=O)O2 [Example 309, (26S)-18-chloro-32-fluoro-4-((6S,8aS)-hexahydro-1H-pyrrolo[2,1-c][1,4]oxazin-6-ylmethoxy)-26-methyl-23,25,28-trioxa-1,3,5,9,14,15-hexaazahexacyclo[24.4.1.1~6,10~.0~2,7~.0~11,19~.0~12,16~]dotriaconta-2,4,6,8,10(32),11,13,16,18-nonaen-24-one] | 6.82 | 7.15 | 8.40 | 8.00 |  |  |  |  |  |  |  |
| (15R)-22,31-Difluoro-8-(((2R,7aS)-2-fluorotetrahydro-1H-pyrrolo[1,2-a]pyrrol-7a(5H)-yl)methoxy)-27-hydroxy-15-methyl-16-oxa-3,7,9,11-tetraazahexacyclo[19.7.1.1˜2,6˜.1˜11,15˜0.0˜5,10˜.0˜25,29˜]hentriaconta-1(28),2(31),3,5,7,9,21,23,25(29),26-decaen-17-one bis(2,2,2-trifluoroacetate) [Example 43] |  |  | 8.70 | 8.40 |  |  |  |  | 7.04 | 7.89 |  |
| CC12CCCN(C1)c1nc(OC[C@@]34CCCN3C[C@H](F)C4)nc3c(F)c(ncc13)-c1cccc3ccc(F)c(c13)CCOC(=O)N2 (mixture of isomers) [Example 76] | 5.77 | 6.09 | 8.05 | 7.82 |  |  |  |  |  |  |  |
| O=C1OCCCc2c(Cl)cc3[nH]ncc3c2-c2ncc3c(nc(OC[C@@]45CCCN4C[C@H](F)C5)nc3c2F)N2CCOC[C@]3(C2)C[C@@H](C3)O1 [Example 312, (1S,3S)-11-chloro-34-fluoro-25-(((2R,7aS)-2-fluorotetrahydro-1H-pyrrolo[1,2-a]pyrrol-7a(5H)-yl)methoxy)-4,6,31-trioxa-14,15,20,24,26,28-hexaazaheptacyclo[26.4.1.1~1,3~.1~19,23~.0~10,18~.0~13,17~.0~22,27~]pentatriaconta-10,12,15,17,19(34),20,22,24,26-nonaen-5-one] | 5.97 | 6.47 | 8.70 | 8.40 |  |  |  |  |  |  |  |
| O=C1CCCCc2c(Cl)cc3[nH]ncc3c2-c2ncc3c(nc(OC[C@@]45CCCN4C[C@H](F)C5)nc3c2F)N2CCC3CN1[C@H]3C2 (mixture of isomers) [Example 164] | 5.51 | 6.63 |  | 8.00 |  |  |  |  |  |  | 7 |
| CN1C(=O)CCCc2c(F)ccc3cccc(c23)-c2ncc3c(nc(OC[C@@]45CCCN4C[C@H](F)C5)nc3c2F)N2CCC[C@]1(C)C2 [Example 167, (15R)-22,31-difluoro-8-(((2R,7aS)-2-fluorotetrahydro-1H-pyrrolo[1,2-a]pyrrol-7a(5H)-yl)methoxy)-15,16-dimethyl-3,7,9,11,16-pentaazahexacyclo[19.7.1.1~2,6~.1~11,15~.0~5,10~.0~25,29~]hentriaconta-1(29),2(31),3,5,7,9,21,23,25,27-decaen-17-one] | 5.30 | 5.80 | 7.70 | 7.36 |  |  |  |  |  |  |  |
| CN1C(=O)CC[C@@H]2C[C@@H]2c2c(Cl)cc3[nH]ncc3c2-c2ncc3c(nc(OC[C@@]45CCCN4C[C@H](F)C5)nc3c2F)N2CCC[C@@H]1C2 [Example 128, (11S,13R,18R)-9-Chloro-31-fluoro-25-(((2R,7aS)-2-fluorotetrahydro-1H-pyrrolo[1,2-a]pyrrol-7a(5H)-yl)methoxy)-17-methyl-5,6,17,22,24,26,30-heptaazaheptacyclo[25.3.1.1˜18,22˜.0˜2,10˜.0˜3,7˜.0˜11,13˜.0˜23,28˜]dotriaconta-1(31),2,4,7,9,23,25,27,29-nonaen-16-one bis (2,2,2-trifluoroacetate)] | 5.90 | 6.61 | 7.34 | 7.17 |  |  |  |  |  |  |  |
| O=C1OCCCc2c(Cl)cccc2-c2ncc3c(nc(OC[C@@]45CCCN4C[C@H](F)C5)nc3c2F)N2CCOC[C@H](C2)O1 [Example 186, (23S)-15-chloro-29-fluoro-4-(((2R,7aS)-2-fluorotetrahydro-1H-pyrrolo[1,2-a]pyrrol-7a(5H)-yl)methoxy)-20,22,25-trioxa-1,3,5,9-tetraazapentacyclo[21.4.1.1~6,10~.0~2,7~.0~11,16~]nonacosa-2,4,6,8,10(29),11,13,15-octaen-21-one] |  |  | 8.05 | 7.92 |  |  |  |  | 5.71 | 6.70 |  |
